Test results from ChEMBL document CHEMBL1201862, “PubChem BioAssay data set” (2004).
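Five compound concentrations were applied to cells in 96-well plates for 48 hours; endpoints were derived by simple linear interpolation of the resulting dose-response curve. GI50 marks 50% less growth.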 The source made the active and inactive calls. No stated cut-off is given here; in the data, active = GI50 up to about 1.1 µM and inactive = higher.

How the values were obtained:
Experiment in all cases: DTP human tumour cell line panel, 48 h
DLD-1 = system: DLD-1
DMS-114 = system: DMS-114
HOP-18 = system: HOP-18
KM-20L2 = system: KM-20L2
M19-MEL = system: M19-MEL
SNB-78 = system: SNB-78
BT-549 = system: BT-549
MDA-MB-435 = system: MDA-MB-435

COc1cc2c[n+](C)c3c4cc(OC)c(OC(C)C)cc4ccc3c2cc1OC
GI50 (DLD-1): > 100 µM (inactive) | GI50 (DMS-114): 5.85 µM (inactive) | GI50 (HOP-18): 49.7 µM (inactive) | GI50 (KM-20L2): 62.7 µM (inactive) | GI50 (M19-MEL): 18.4 µM (inactive) | GI50 (SNB-78): 50 µM (inactive)

O=C1CCSSCCC(=O)Nc2ccccc2N1
GI50 (BT-549): > 100 µM (inactive) | GI50 (MDA-MB-435): > 100 µM (inactive)

CN(C)C(=S)/N=c1\ss/c(=N\C(=S)N(C)C)n1-c1ccc2c(c1)OCO2
GI50 (DMS-114): 5.11 µM (inactive) | GI50 (KM-20L2): > 100 µM (inactive)

COC1C=COC2(C)Oc3c(C)c(O)c4c(O)c(c(/C=N/N5CCN(N)CC5)c(O)c4c3C2=O)NC(=O)C(C)=CC=CC(C)C(O)C(C)C(O)C(C)C(OC(C)=O)C1C (configuration not stated)
GI50 (DLD-1): 82.6 µM (inactive) | GI50 (DMS-114): 64.4 µM (inactive) | GI50 (KM-20L2): > 100 µM (inactive) | GI50 (M19-MEL): 42 µM (inactive) | GI50 (SNB-78): 88.1 µM (inactive)

O=c1[nH]c(=O)n(CCOc2ccc(Cl)cc2)cc1Nc1ccccc1
GI50 (MDA-MB-435): > 100 µM (inactive)

CCCCN/C(=N\C#N)N(Cc1ccccc1)Cc1ccccc1
GI50 (DLD-1): 19.1 µM (inactive) | GI50 (HOP-18): 39.8 µM (inactive) | GI50 (KM-20L2): 20.8 µM (inactive) | GI50 (M19-MEL): 18.1 µM (inactive) | GI50 (SNB-78): 18.2 µM (inactive)

CN(C)CCCOc1ccc(/C=C2/CCC/C(=C/c3ccc(OCCCN(C)C)cc3)C2=O)cc1
GI50 (DLD-1): 1.5 µM (inactive) | GI50 (DMS-114): 1.56 µM (inactive) | GI50 (HOP-18): 3.61 µM (inactive) | GI50 (KM-20L2): 0.232 µM (active) | GI50 (SNB-78): 3.25 µM (inactive)

COc1ccc(N2C(=O)CS(=O)(=O)C2c2cccc(Oc3ccccc3)c2)cc1 (configuration not stated)
GI50 (BT-549): 7.74 µM (inactive) | GI50 (MDA-MB-435): 0.959 µM (active)

CN(C)CCNC(=O)C(C)(C)Oc1ccc(C(=O)c2ccc(Cl)cc2)cc1Cl
GI50 (BT-549): 11.5 µM (inactive) | GI50 (MDA-MB-435): 5.6 µM (inactive)

NNc1ccccc1Cl
GI50 (BT-549): > 100 µM (inactive) | GI50 (MDA-MB-435): > 100 µM (inactive)

Cn1c(=O)cc(NCc2ccc(Cl)cc2)[nH]c1=O
GI50 (BT-549): 76.9 µM (inactive) | GI50 (MDA-MB-435): > 100 µM (inactive)

Cc1ccc(S(=O)(=O)NC(=O)NC(Cc2ccc(O)cc2)C(=O)O)cc1 (configuration not stated)
GI50 (BT-549): > 100 µM (inactive)

Cc1nc(-c2ccc(/N=C/c3ccc(N(CCOS(C)(=O)=O)CCOS(C)(=O)=O)cc3C)cc2)cs1
GI50 (BT-549): 28.2 µM (inactive) | GI50 (MDA-MB-435): 72.9 µM (inactive)

O=c1c2ccccc2n2nnc3ccc(NCCCNCCNCCCNc4ccc5nnn6c7ccccc7c(=O)c4c56)c1c32
GI50 (BT-549): 7.36 µM (inactive)

CCCc1c(OC)c(=O)c2c(O)cc(OC)c3c4c(OC)cc(O)c5c(=O)c(OC)c(CCC)c(c1c23)c54
GI50 (BT-549): 2.74 µM (inactive) | GI50 (MDA-MB-435): 1.85 µM (inactive)

C=C(C)C(=O)N1c2ccc(OC)cc2CC1C(=O)OCC (configuration not stated)
GI50 (BT-549): > 100 µM (inactive)

CN/C(N)=N/N=C1/C(=O)Nc2ccccc21
GI50 (BT-549): > 100 µM (inactive) | GI50 (MDA-MB-435): > 100 µM (inactive)

O=S(=O)(O)c1ccc(-c2c3nc(c(-c4ccc(S(=O)(=O)O)cc4)c4ccc([nH]4)c(-c4ccc(S(=O)(=O)O)cc4)c4nc(c(-c5ccc(S(=O)(=O)O)cc5)c5ccc2[nH]5)C=C4)C=C3)cc1
GI50 (BT-549): 28 µM (inactive) | GI50 (MDA-MB-435): 61 µM (inactive)

COc1cccc(/C=C2\N=C(c3ccccc3)OC2=O)c1
GI50 (BT-549): 40.6 µM (inactive) | GI50 (MDA-MB-435): > 100 µM (inactive)

CCOC(=O)c1c(-c2ccc(OC)cc2)ccn1C
GI50 (BT-549): > 10 µM (inactive) | GI50 (MDA-MB-435): > 10 µM (inactive)

COc1ccc(/C=C2\CCC(CCN(C)C)(C3=CCCC3)C2=O)cc1 (configuration not stated)
GI50 (DLD-1): 26.4 µM (inactive) | GI50 (DMS-114): 15.6 µM (inactive) | GI50 (HOP-18): 14.1 µM (inactive) | GI50 (KM-20L2): 14.1 µM (inactive) | GI50 (M19-MEL): 15.1 µM (inactive) | GI50 (SNB-78): 21.8 µM (inactive)

COc1ccc(C)cc1NC(=S)N/N=C/c1ccc(SC)cc1
GI50 (BT-549): 49.3 µM (inactive) | GI50 (MDA-MB-435): 38.4 µM (inactive)

O[C@@H]1C[C@H](Cl)c2c(Cl)sc(Cl)c21
GI50 (BT-549): > 100 µM (inactive) | GI50 (MDA-MB-435): > 100 µM (inactive)

O=c1[nH]nc(Nc2ccccc2)c2nnn(Cc3ccccc3)c12
GI50 (BT-549): > 100 µM (inactive) | GI50 (MDA-MB-435): > 100 µM (inactive)

O/N=C1/CCCc2nonc21
GI50 (MDA-MB-435): > 100 µM (inactive)

CN(c1n[n+]2c(-c3ccccc3)csc2s1)c1n[n+]2c(-c3ccccc3)csc2s1
GI50 (DLD-1): > 100 µM (inactive) | GI50 (DMS-114): 59.6 µM (inactive) | GI50 (HOP-18): > 100 µM (inactive) | GI50 (KM-20L2): > 100 µM (inactive) | GI50 (M19-MEL): > 100 µM (inactive) | GI50 (SNB-78): > 100 µM (inactive)

c1ccc(CNCCCNCCCCNCCCNCc2ccccc2)cc1
GI50 (BT-549): 16.7 µM (inactive) | GI50 (MDA-MB-435): 4.22 µM (inactive)

CCCOc1nc(N)c2cnn(C3CCCCO3)c2n1 (configuration not stated)
GI50 (DLD-1): > 100 µM (inactive) | GI50 (DMS-114): > 100 µM (inactive) | GI50 (HOP-18): 68.9 µM (inactive) | GI50 (KM-20L2): > 100 µM (inactive) | GI50 (M19-MEL): > 100 µM (inactive) | GI50 (SNB-78): > 100 µM (inactive)

COC1[C@@H](OC(C)=O)[C@@H](NC(=O)C(Cl)(Cl)Cl)C(I)[C@@H](N2C(=O)c3ccccc3C2=O)[C@H]1OC (some centres not stated)
GI50 (DLD-1): > 100 µM (inactive) | GI50 (DMS-114): > 100 µM (inactive) | GI50 (HOP-18): > 100 µM (inactive) | GI50 (KM-20L2): > 100 µM (inactive) | GI50 (SNB-78): > 100 µM (inactive)

N=C(N)C(/N=N\c1ccccc1)C(N)=O (configuration not stated)
GI50 (BT-549): > 100 µM (inactive) | GI50 (MDA-MB-435): 83.4 µM (inactive)

CO[C@H](c1ccccc1)[C@H](O)[C@](O)(c1ccccc1)P(=O)(OC)OC
GI50 (BT-549): > 100 µM (inactive) | GI50 (MDA-MB-435): > 100 µM (inactive)

O=C(CNc1ccc([N+](=O)[O-])cc1)Nn1c(-c2ccccc2)nc2ccccc2c1=O
GI50 (BT-549): 1.82 µM (inactive) | GI50 (MDA-MB-435): 3.96 µM (inactive)

O=C(CN1CCN(c2ccccn2)CC1)N1CCCn2c1nc1ccccc1c2=O
GI50 (BT-549): > 100 µM (inactive) | GI50 (MDA-MB-435): > 100 µM (inactive)

CCC/C(Cl)=N\OC(=O)Nc1cccc(C(F)(F)F)c1
GI50 (BT-549): 10.6 µM (inactive)

N#CCCN(CCCN(C(=O)Nc1ccc(NC(=O)N(CCCN(CCC#N)C(N)=O)c2ccccc2)cc1)c1ccccc1)C(N)=O
GI50 (BT-549): > 100 µM (inactive) | GI50 (MDA-MB-435): > 100 µM (inactive)
